Laboratory results reported in ChEMBL document CHEMBL1221184, “Identifying off-target effects and hidden phenotypes of drugs in human cells” (Nat Chem Biol, 2006).
Active and inactive are the calls of the source. The calls are words filed in the database; no cut-off is given here. Positions of bridges follow the written chain, without caps; N, C: chain ends. Non-standard residues stand in square brackets, D forms with d. Residues, ends and D or L forms follow the SMILES beside them. Nle = CCCC[C@H](N)C(=O)O

Tests used:
PC-3 [1] = experiment: Antiproliferative activity against human PC3 cells at 200 nM after 120 hrs by MTT assay relative to DMSO; assay type: functional
PC-3 [2] = experiment: Antiproliferative activity against human PC3 cells at 20 uM after 120 hrs by MTT assay relative to DMSO; assay type: functional
PC-3 [3] = experiment: Antiproliferative activity against human PC3 cells at 3 uM after 120 hrs by MTT assay relative to DMSO; assay type: functional
[4] = biological target: Transcription factor Jun (Homo sapiens) (UniProt P05412); experiment: Inhibition of c-Jun expressed in HEK293 cells assessed as induction of protein interaction in presence of camptothecin with Pin1 by EYFP based reporter gene assay; assay type: cell-based
[5] = biological target: Cyclin-dependent kinase 1 (Homo sapiens) (UniProt P06493); experiment: Effect on Cdc2 expressed in HEK293 cells assessed as effect on Cdc2:Cdc25A interaction complexes in presence of camptothecin by EYFP and/or YFP Venus fragment based reporter gene assay; assay type: cell-based
[6] = biological target: Transcription factor Jun (Homo sapiens) (UniProt P05412); experiment: Activation of c-Jun expressed in HEK293 cells assessed as induction of protein interaction with Pin1 by EYFP based reporter gene assay; assay type: cell-based
[7] = biological target: Cyclin-dependent kinase 1 (Homo sapiens) (UniProt P06493); experiment: Effect on Cdc2 expressed in HEK293 cells assessed as effect on Cdc2:Cdc25C interaction complexes in presence of camptothecin by EYFP and/or YFP Venus fragment based reporter gene assay; assay type: cell-based
Cofilin-1 (Homo sapiens) [8] = biological target: Cofilin-1 (Homo sapiens) (UniProt P23528); experiment: Effect on cofilin1 expressed in HEK293 cells assessed as effect on cofilin1; Limk2 interaction complexes in presence of camptothecin by EYFP and/or YFP Venus fragment based reporter gene assay; assay type: cell-based
[9] = biological target: Cyclin-dependent kinase 1 (Homo sapiens) (UniProt P06493); experiment: Inhibition of Cdc2 expressed in HEK293 cells assessed as effect on Cdc2:Cdc25C interaction complexes in presence of camptothecin by EYFP and/or YFP Venus fragment based reporter gene assay; assay type: cell-based
HEK293 [10] = experiment: Inhibition of proteasome expressed in HEK293 cells assessed as effect on p53-Chk1 interaction complexes by EYFP and/or YFP Venus fragment based reporter gene assay
HEK293 [11] = experiment: Inhibition of proteasome expressed in HEK293 cells assessed as effect on E6:E6AP interaction complexes by EYFP and/or YFP Venus fragment based reporter gene assay
HEK293 [12] = experiment: Inhibition of proteasome expressed in HEK293 cells assessed as effect on Pin1-Jun interaction complexes by EYFP and/or YFP Venus fragment based reporter gene assay
HEK293 [13] = experiment: Inhibition of proteasome expressed in HEK293 cells assessed as effect on p53-p53 interaction complexes by EYFP and/or YFP Venus fragment based reporter gene assay
Cofilin-1 (Homo sapiens) [14] = biological target: Cofilin-1 (Homo sapiens) (UniProt P23528); experiment: Effect on cofilin1 expressed in HEK293 cells assessed as effect on cofilin1; Limk2 interaction complexes by EYFP and/or YFP Venus fragment based reporter gene assay; assay type: cell-based
HEK293 [15] = experiment: Inhibition of proteasome expressed in HEK293 cells assessed as effect on CyclinD1-CDK4 interaction complexes by EYFP and/or YFP Venus fragment based reporter gene assay
PC-3 [16] = experiment: Antiproliferative activity against human PC3 cells at 25 uM after 120 hrs by MTT assay relative to DMSO; assay type: functional
PC-3 [17] = experiment: Antiproliferative activity against human PC3 cells at 100 nM after 120 hrs by MTT assay relative to DMSO; assay type: functional
PC-3 [18] = experiment: Antiproliferative activity against human PC3 cells at 5 uM after 120 hrs by MTT assay relative to DMSO; assay type: functional
HEK293 [19] = experiment: Inhibition of HSP90 expressed in HEK293 cells assessed as effect on Akt1:p27 interaction complexes by EYFP and/or YFP Venus fragment based reporter gene assay; assay type: cell-based
PC-3 [20] = experiment: Antiproliferative activity against human PC3 cells at 300 nM after 120 hrs by MTT assay relative to DMSO; assay type: functional
PC-3 [21] = experiment: Antiproliferative activity against human PC3 cells at 50 ug/ml after 120 hrs by MTT assay relative to DMSO; assay type: functional
PC-3 [22] = experiment: Antiproliferative activity against human PC3 cells at 15 uM after 120 hrs by MTT assay relative to DMSO; assay type: functional
PC-3 [23] = experiment: Antiproliferative activity against human PC3 cells at 30 uM after 120 hrs by MTT assay relative to DMSO; assay type: functional
PC-3 [24] = experiment: Antiproliferative activity against human PC3 cells at 1.5 uM after 120 hrs by MTT assay relative to DMSO; assay type: functional
PC-3 [25] = experiment: Antiproliferative activity against human PC3 cells at 2.5 uM after 120 hrs by MTT assay relative to DMSO; assay type: functional

Chain of Cofilin-1 (Homo sapiens) (P23528 whole entry, the tested form may be a part): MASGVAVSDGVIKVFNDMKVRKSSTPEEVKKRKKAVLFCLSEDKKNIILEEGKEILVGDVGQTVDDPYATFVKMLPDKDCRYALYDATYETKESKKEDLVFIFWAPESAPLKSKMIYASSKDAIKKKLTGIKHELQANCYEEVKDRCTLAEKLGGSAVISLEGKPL
Chain of Cyclin-dependent kinase 1 (Homo sapiens) (P06493 whole entry, looked up, the tested form may be a part): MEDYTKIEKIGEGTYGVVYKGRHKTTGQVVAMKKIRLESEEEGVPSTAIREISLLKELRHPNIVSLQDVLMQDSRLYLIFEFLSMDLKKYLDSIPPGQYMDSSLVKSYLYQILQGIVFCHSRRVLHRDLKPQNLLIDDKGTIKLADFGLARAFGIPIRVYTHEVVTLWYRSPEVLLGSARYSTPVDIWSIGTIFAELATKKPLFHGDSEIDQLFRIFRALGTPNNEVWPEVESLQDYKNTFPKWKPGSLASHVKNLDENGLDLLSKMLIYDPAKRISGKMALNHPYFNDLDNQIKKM
Chain of Transcription factor Jun (Homo sapiens) (P05412 whole entry, the tested form may be a part): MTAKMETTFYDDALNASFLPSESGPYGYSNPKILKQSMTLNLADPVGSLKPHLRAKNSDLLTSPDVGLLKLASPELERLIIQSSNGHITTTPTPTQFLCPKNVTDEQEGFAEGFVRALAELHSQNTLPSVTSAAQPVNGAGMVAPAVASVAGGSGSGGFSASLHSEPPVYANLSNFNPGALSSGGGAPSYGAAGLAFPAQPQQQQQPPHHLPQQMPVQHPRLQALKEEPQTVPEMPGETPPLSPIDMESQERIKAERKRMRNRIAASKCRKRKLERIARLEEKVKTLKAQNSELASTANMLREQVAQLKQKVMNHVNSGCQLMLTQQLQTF

COc1cc2ncnc(Nc3cccc(Br)c3)c2cc1OC
fold change (FC) (PC-3 [1]): 0.983

COc1cccc(-c2cc(=O)c3ccccc3o2)c1N
fold change (FC) (PC-3 [2]): 0.901

CN(CCOc1ccc(C[C@H](Nc2ccccc2C(=O)c2ccccc2)C(=O)O)cc1)c1ccccn1
fold change (FC) (PC-3 [3]): 0.956

CC(C)OC(=O)C(C)(C)Oc1ccc(C(=O)c2ccc(Cl)cc2)cc1
Activity [4]: Active
Activity [5]: Active
Activity [6]: Active
Activity [7]: Active
Activity (Cofilin-1 (Homo sapiens) [8]): Active
inhibition [9]: Active

CCCC[C@@H](C=O)NC(=O)[C@H](CC(C)C)NC(=O)[C@H](CC(C)C)NC(C)=O (Ac-Leu-Leu-[Nle]-aldehyde)
inhibition (HEK293 [10]): Active
inhibition (HEK293 [11]): Active
inhibition (HEK293 [12]): Active
inhibition (HEK293 [13]): Active
Activity (Cofilin-1 (Homo sapiens) [14]): Active
inhibition (HEK293 [15]): Active
fold change (FC) (PC-3 [16]): 0.26

CC[C@H](C)[C@H](NC(=O)[C@@H](NC(=O)[C@H](CC(=O)O)NC(=O)[C@H](CCC(N)=O)NC(=O)[C@H](Cc1cnc[nH]1)NC(=O)[C@@H]1CSSC[C@H](N)C(=O)N[C@@H](CO)C(=O)N[C@H]2CSSC[C@H](NC(=O)[C@H](CCC(=O)O)NC(=O)[C@H](CCCCN)NC(=O)[C@H](CC(=O)O)NC(=O)[C@H]([C@@H](C)O)NC(=O)[C@H](CCSC)NC(=O)[C@H](CC(=O)O)NC(=O)[C@H](CCCCN)NC2=O)C(=O)N[C@@H](CC(C)C)C(=O)N[C@@H](Cc2ccc(O)cc2)C(=O)N[C@@H](Cc2ccccc2)C(=O)N1)C(C)C)C(=O)N[C@@H](Cc1c[nH]c2ccccc12)C(=O)O (H-CSCKDMTDKECLYFCHQDVIW-OH; disulfide 1-15, 3-11)
fold change (FC) (PC-3 [17]): 1.037

C=CCNC1=C2C[C@@H](C)C[C@H](OC)[C@H](O)[C@@H](C)/C=C(\C)[C@H](OC(N)=O)[C@@H](OC)/C=C\C=C(/C)C(=O)NC(=CC1=O)C2=O (stereo in doubt) [TANESPIMYCIN]
fold change (FC) (PC-3 [18]): 0.264
inhibition (HEK293 [19]): Active

CC[C@H](C)[C@H](NC(=O)[C@H](Cc1ccc(O)cc1)NC(=O)[C@@H](NC(=O)[C@H](CCCNC(=N)N)NC(=O)[C@@H](N)CC(=O)O)C(C)C)C(=O)N[C@@H](Cc1cnc[nH]1)C(=O)N1CCC[C@H]1C(=O)N[C@@H](Cc1ccccc1)C(=O)O [ANGIOTENSIN II]
fold change (FC) (PC-3 [20]): 1.018

C[C@H]1CCC/C=C/[C@@H]2C[C@H](O)C[C@H]2[C@H](O)/C=C/C(=O)O1 [BREFELDIN A]
fold change (FC) (PC-3 [21]): 0.245

CC1(COc2ccc(CC3SC(=O)NC3=O)cc2)CCCCC1 (stereo not drawn) [CIGLITAZONE]
fold change (FC) (PC-3 [22]): 0.934

CCOC(=O)C(C)(C)Oc1ccc(Cl)cc1 [CLOFIBRATE]
Activity [4]: Active
fold change (FC) (PC-3 [23]): 1.021
Activity [5]: Active
Activity [6]: Active
Activity [7]: Active
Activity (Cofilin-1 (Homo sapiens) [8]): Active
inhibition [9]: Active

C/C(=C\c1csc(C)n1)[C@@H]1C[C@@H]2O[C@@H]2CCC[C@H](C)[C@H](O)[C@@H](C)C(=O)C(C)(C)[C@@H](O)CC(=O)O1 [EPOTHILONE A]
fold change (FC) (PC-3 [17]): 0.291

C=C1C[C@@H]2[C@H](CC[C@]3(C)C(=O)CC[C@@H]23)[C@@]2(C)C=CC(=O)C=C12 [EXEMESTANE]
fold change (FC) (PC-3 [24]): 0.975

COC1=C2C[C@@H](C)C[C@H](OC)[C@H](O)[C@@H](C)/C=C(\C)[C@H](OC(N)=O)[C@@H](OC)/C=C\C=C(/C)C(=O)NC(=CC1=O)C2=O [GELDANAMYCIN]
inhibition (HEK293 [19]): Active
fold change (FC) (PC-3 [25]): 0.261
